Laboratory results: patent publication US5001129A, “Oxazoloquinoline compounds and therapeutic application thereof” (Delalande S.A., priority 1987, dated 1991)

Tests used:
[1] = target: T1, monoamine oxydase (Rattus norvegicus, UniProt P21396); assay: inhibition of the activity of the monoamine oxydase in vitro on homogenates of rat brain (serotonin as substrate); format: biochemical; conditions: serotonin as substrate at 480 μM, read-out: Test in vitro IC50
T1 construct: in vitro on homogenates of rat brain; from tissue; host or cells: rat brain homogenate
T1 sequence (P21396 1-526): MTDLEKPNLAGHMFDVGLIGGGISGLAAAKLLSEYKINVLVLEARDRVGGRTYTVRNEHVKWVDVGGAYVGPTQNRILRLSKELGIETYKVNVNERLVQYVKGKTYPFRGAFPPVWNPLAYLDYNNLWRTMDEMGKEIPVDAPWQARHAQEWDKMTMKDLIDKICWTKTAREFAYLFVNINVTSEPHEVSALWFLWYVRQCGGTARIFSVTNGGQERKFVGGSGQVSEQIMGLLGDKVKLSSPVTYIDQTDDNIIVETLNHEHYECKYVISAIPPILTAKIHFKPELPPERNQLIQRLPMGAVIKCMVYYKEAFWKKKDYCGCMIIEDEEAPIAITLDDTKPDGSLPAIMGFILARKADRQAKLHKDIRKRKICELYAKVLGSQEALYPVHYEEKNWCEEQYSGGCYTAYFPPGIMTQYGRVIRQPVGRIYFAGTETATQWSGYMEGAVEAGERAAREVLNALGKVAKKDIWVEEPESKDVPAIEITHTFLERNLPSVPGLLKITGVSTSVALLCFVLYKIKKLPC
Experimental: in vitro on homogenates of rat brain, by measuring the concentration of the product inhibiting by 50% (IC50) the activity of the monoamine oxydase utilising serotonin as substrate at 480 μM, according to the method described by M. STROLIN BENEDETTI. T. BOUCHER and C. J. FOWLER in Naunyn--Schmiedebergs Archiv. of Pharm. (1983) 323, 315-320;

[2] = system: effects of serotonin (precursor hydroxy-5 tryptophan, 5-HTP); assay: potentiation of hydroxy-5 tryptophan (5-HTP): generalised trembling or stereotypies in rats; conditions: Rattus norvegicus, oral, 1 h before 120 mg/kg i.p. 5-HTP, generalised trembling or stereotypies in 50% of the animals, read-out: Test in vivo ED50
Experimental: in vivo by determining in rats the dose of the product which, administered orally, causes in 50% of the animals (ED50) the appearance of generalised trembling or stereotypies (finger-tapping as on a piano, movements of the head) following the intraperitoneal administration 1 h after the first treatment of a dose of 120 mg/kg of hydroxy-5 tryptophan (5-HTP) [M. JALFRE, B. BUCHER, A. COSTON, G. MOCQUET, R. D. PORSOLT, Arch. Int. Pharmacodyn., (1982), 259, 194-221].

[3] = LD50 in mice, oral; conditions: mouse, in vivo

IC50 [1]	Structure (SMILES)	ED50 [2]	LD50 [3]
500 nM	C=C[C@H]1OC(=O)N2c3ccccc3CC[C@@H]12 (relative stereo) [MD 200502, ethenyl-3 tetrahydro-3,3a,4,5 1H-oxazolo [3,4-a] quinoline-one-1]		
57 nM	C=C[C@@H]1OC(=O)N2c3ccccc3CC[C@@H]12 (relative stereo) [MD 200503, ethenyl-3 tetrahydro-3,3a,4,5 1H-oxazolo [3,4-a] quinoline-one-1]	20 mg/kg	
	O=C1O[C@H](CO)[C@@H]2CCc3ccccc3N12 (relative stereo) [MD 200504, cis hydroxymethyl-3 tetrahydro-3,3a,4,5 1H-oxazolo [3,4-a] quinoline-one-1]	7.8 mg/kg	
2800 nM	O=C1O[C@H](CO)[C@@H]2Cc3ccccc3N12 (relative stereo) [MD 200602]		
90 nM	COC[C@H]1OC(=O)N2c3ccccc3CC[C@@H]12 (relative stereo) [MD 200682, cis methoxymethyl-3 tetrahydro-3,3a,4,5 1H oxazolo [3,4-a] quinoline-one-1]	2.3 mg/kg	
8700 nM	O=C1O[C@@H](CO)[C@@H]2Cc3ccccc3N12 (relative stereo) [MD 200718]		
19 nM	COc1ccc2c(c1)CC[C@H]1[C@@H](CO)OC(=O)N21 (relative stereo) [MD 280386, cis hydroxymethyl-3 methoxy-7 tetrahydro-3,3a,4,5 1H-oxazino [3, 4a] quinoline-one-1]		
75 nM	COc1ccc2c(c1)CC[C@H]1[C@H](CO)OC(=O)N21 (relative stereo) [MD 280387]		
29 nM	C=C[C@@H]1OC(=O)N2c3ccc(OC)cc3CC[C@@H]12 (relative stereo) [MD 280404, ethenyl-3 methoxy-7 tetrahydro-3,3a, 4,5 1H-oxazolo [3.4-a] quinoline-one-1]	11 mg/kg	
1400 nM	C[C@@H]1OC(=O)N2c3ccccc3CC[C@@H]12 (relative stereo) [MD 280430, trans methyl-3 tetrahydro-3,3a,4,5 1 H-oxazolo [3,4-a] quinoline-one-1]	105 mg/kg	
9 nM	COC[C@H]1OC(=O)N2c3ccc(OC)cc3CC[C@@H]12 (relative stereo) [MD 280448]	1.8 mg/kg	
1000 nM	COc1ccc2c(c1)CC[C@H]1[C@@H](CN)OC(=O)N21 (relative stereo) [MD 370024, cis aminomethyl-3 methoxy-7 tetrahydro-3,3a,4,5 1H-oxazolo [3,4-a] quinoline-one-2]		
1600 nM	COc1ccc2c(c1)CC[C@H]1[C@H](CN)OC(=O)N21 (relative stereo) [MD 370025]		
	CNC[C@H]1OC(=O)N2c3ccc(OC)cc3CC[C@@H]12 (relative stereo) [MD 370026]		263 mg/kg
	CNC[C@@H]1OC(=O)N2c3ccc(OC)cc3CC[C@@H]12 (relative stereo) [MD 370027]	5.8 mg/kg	
97 nM	O=C1O[C@@H](CO)[C@@H]2CCc3ccc(Cl)cc3N12 (relative stereo) [MD 370335]		
80 nM	O=C1O[C@H](CO)[C@@H]2CCc3ccc(Cl)cc3N12 (relative stereo) [MD 370336]		

Structure (SMILES)	IC50 [1]	ED50 [2]	LD50 [3]
COC[C@@H]1OC(=O)N2c3ccc(OC)cc3CC[C@@H]12 (relative stereo) [MD 280449]	6 nM		1120 mg/kg
